Test results as given in patent US8022180B2, “Method for preventing and treating Alzheimer's disease” (Affiris Forschungs-und Entwicklungs GmbH, priority 2004, dated 2011).
Entries after “also recorded” stand apart in the source; their conditions may differ. Where a SMILES comes first, the peptide text is derived from it. Where no end group is shown, it is not given here. [ ]: non-standard residue; d: D form. Tle = CC(C)(C)[C@H](N)C(=O)O

Test system: monoclonal antibody specific for the natural N-terminal Aβ42 sequence DAEFRH
Assay: Inhibition assay: mimotope peptides compete with plate-bound DAEFRH-BSA for recognition by the biotinylated monoclonal antibody (ELISA)
Type: binding, mice
Design: key to inhibition (s/m/—): s: strong inhibition; m: moderate inhibition; —: no inhibition
Conditions: for inhibition of epitope recognition by the monoclonal antibody (in words): FIGS. 2-9; for inhibition (s/m/—): peptides of the new screening round and 5mers with non natural amino acids; for Inhibitory capacity of mimotopes: summary Tables 1 and 2, in words; for concentration at which the peptide is only inhibitory: only inhibitory at a (relatively) high concentration; for IC50 (inhibition of monoclonal antibody binding to the original epitope): competition ELISA, plate-bound DAEFRH-BSA, peptides 20 min at 37° C.
Source text: 1.: Generation of Monoclonal Antibodies (mAb) to Detect Aβ42-Derived Peptide Species with Free N-Terminus (Free Aspartic Acid at the N-Terminus)
Mice are vaccinated with the 6mer peptide DAEFRH (SEQ ID NO: 26) (natural N-terminal Aβ42 sequence) linked to the protein bovine serum albumin BSA (to make use of the hapten-carrier-effect), emulsified in CFA (first injection) and IFA (booster injections). DAEFRH (SEQ ID NO: 26)-peptide-specific, antibody-producing hybridomas are detected by ELISA (DAEFRH (SEQ ID NO: 26)-peptide-coated ELISA plates).
(§1) FIGS. 2 and 3 describe the results of inhibition assays performed with mimotope peptides included in and obtained from the 5 libraries (as described). The mimotope peptides compete with the original epitope for recognition by the monoclonal antibody. Original epitope and mimotope peptides contain an additional C at the C-terminus for coupling to a protein carrier (if desired).
(§2) After blocking with PBS/BSA 1% (200 μl/well, 12 h, 4° C.), the plates are washed 3× times with PBS/Tween. Then, biotinylated monoclonal antibody (1:2000, 50 μl/well) and peptides (50 μl/well) at 50, 5, 0.5, 0.05, 0.005, and 0.0005 μg/ml are added for 20 min. at 37° C. The plates are washed 3× times with PBS/Tween and are incubated with horseradish peroxidase (HRP)-labeled streptavidin (100 μl/well, 30 min, RT). The plates are washed 5× times with PBS/Tween and are incubated with ABTS+H2O2 (0.1% w/v, 10 to 45 min) and the reaction is stopped with citric acid followed by photometric evaluation (wavelength 405 nm).
as §1, with “4” for “2”, “5” for “3”, “C-terminus (position 7)” for “C-terminus”
as §2, with “different concentrations” for “50, 5, 0.5, 0.05, 0.005, and 0.0005 μg/ml”
as §1, with “6 to 8” for “2 and 3”, “2” for “5”, “described above).” for “described).”, “C-terminus (position 7 or position 8, respectively)” for “C-terminus”

| Molecule | inhibition of epitope recognition by the monoclonal antibody (in words) | inhibition (s/m/—) | Inhibitory capacity of mimotopes | concentration at which the peptide is only inhibitory [µg/mL] | IC50 (inhibition of monoclonal antibody binding to the original epitope) |
| --- | --- | --- | --- | --- | --- |
| SAEFRTQ [Peptide 4015] | strongly block epitope recognition | s |  |  |  |
| C[C@H](NC(=O)[C@H](CC(=O)O)NC(=O)[C@H](CCCNC(=N)N)NC(=O)[C@H](Cc1ccccc1)NC(=O)[C@H](CCC(=O)O)NC(=O)[C@H](Cc1c[nH]c2ccccc12)NC(=O)[C@@H](N)CC(=O)O)C(=O)N[C@@H](CS)C(=O)O [Peptide 1241, DWEFRDA] | block epitope recognition |  | strong |  |  |
| CC[C@H](C)[C@H](NC(=O)[C@H](CCCNC(=N)N)NC(=O)[C@H](CC(C)C)NC(=O)[C@H](CCC(=O)O)NC(=O)[C@H](Cc1c[nH]c2ccccc12)NC(=O)[C@@H](N)CC(=O)O)C(=O)N[C@@H](CS)C(=O)O [Peptide 3002, DWELRI] | block epitope recognition |  | intermediate |  |  |
| YREFFI [Peptide 3003] | not able to inhibit binding |  | none |  |  |
| CC[C@H](C)[C@H](NC(=O)[C@H](CCCNC(=N)N)NC(=O)[C@H](CC(C)C)NC(=O)[C@H](CCC(=O)O)NC(=O)[C@H](CCCNC(=N)N)NC(=O)[C@@H](N)CC(=O)O)C(=O)N[C@@H](CS)C(=O)O [Peptide 1235, DRELRI] | block epitope recognition |  | strong |  |  |
| CC(C)C[C@H](NC(=O)[C@@H](N)CCC(=O)O)C(=O)N[C@@H](CCC(=O)O)C(=O)N[C@@H](Cc1ccccc1)C(=O)N[C@@H](CCCNC(=N)N)C(=O)NCC(=O)N[C@@H](CS)C(=O)O [Peptide 3008, ELEFRG] |  |  | weak |  |  |
| SWEFRLY [Peptide 4018] | strongly block epitope recognition | s |  |  |  |
| DISFRG [Peptide 3010] | not inhibitory at the concentrations tested |  | none |  |  |
| CCCC[C@H](NC(=O)[C@H](CCC(=O)O)NC(=O)[C@H](CCCCN)NC(=O)[C@@H](N)CC(=O)O)C(=O)N[C@@H](CCCNC(=N)N)C(=O)N[C@@H](CS)C(=O)O [Peptide 4062, DKE(Nle)R] (HELM PEPTIDE1{D.K.E.[Nle].R.C}$$$$V2.0) | block epitope recognition | m |  |  |  |
| SWEFRNP [Peptide 4017] | strongly block epitope recognition | s |  |  |  |
| N=C(N)NCCC[C@H](NC(=O)[C@H](Cc1ccccc1)NC(=O)[C@H](CCC(=O)O)NC(=O)[C@H](Cc1ccccc1)NC(=O)[C@@H](N)CO)C(=O)NCC(=O)N[C@@H](CS)C(=O)O [Peptide 3009, SFEFRG] |  |  | weak |  |  |
| DNEFRSP [Peptide 4012] | moderately inhibit binding | s |  |  |  |
| YREFRI [Peptide 3004] | block epitope recognition |  | weak | 50 |  |
| KKELRI [Peptide 1234] | hardly inhibitory at the concentrations tested |  | none |  |  |
| CCC[C@H](NC(=O)[C@H](CCC(=O)O)NC(=O)[C@H](CCCCN)NC(=O)[C@@H](N)CC(=O)O)C(=O)N[C@@H](CCCNC(=N)N)C(=O)N[C@@H](CS)C(=O)O [Peptide 4063, DKE(Nva)R] (HELM PEPTIDE1{D.K.E.[Nva].R.C}$$$$V2.0) | block epitope recognition | m |  |  |  |
| CC[C@H](C)[C@H](NC(=O)[C@H](CCCCN)NC(=O)[C@H](CC(C)C)NC(=O)[C@H](CCC(=O)O)NC(=O)[C@H](CCCCN)NC(=O)[C@@H](N)CC(=O)O)C(=O)N[C@@H](CS)C(=O)O [Peptide 1236, DKELKI] | block epitope recognition |  | weak |  |  |

| Molecule | inhibition of epitope recognition by the monoclonal antibody (in words) | inhibition (s/m/—) | Inhibitory capacity of mimotopes | concentration at which the peptide is only inhibitory [µg/mL] | IC50 (inhibition of monoclonal antibody binding to the original epitope) |
| --- | --- | --- | --- | --- | --- |
| DIGWRG [Peptide 3011] | not inhibitory at the concentrations tested |  | none |  |  |
| CC[C@H](C)[C@H](NC(=O)[C@H](CCCCN)NC(=O)[C@H](CC(C)C)NC(=O)[C@H](CCC(=O)O)NC(=O)[C@H](CCCNC(=N)N)NC(=O)[C@@H](N)CC(=O)O)C(=O)N[C@@H](CS)C(=O)O [Peptide 1237, DRELKI] | block epitope recognition |  | weak |  |  |
| GREFRN [Peptide 4003] | block epitope recognition |  | weak | 10 |  |
| DKE(tBuGly)R (DKE[Tle]R) [Peptide 4061] | not inhibitory at the concentrations tested | — |  |  |  |
| C[C@H](NC(=O)[C@@H](N)CCC(=O)O)C(=O)N[C@@H](CCC(=O)O)C(=O)N[C@@H](Cc1ccccc1)C(=O)N[C@@H](CCCNC(=N)N)C(=O)NCC(=O)N[C@@H](CS)C(=O)O [Peptide 3006, EAEFRG] | block epitope recognition |  | strong |  |  |
| SWFRNP [Peptide 4019] | not inhibitory at the concentrations tested | — |  |  |  |
| N=C(N)NCCC[C@H](NC(=O)[C@H](Cc1ccccc1)NC(=O)[C@H](CCC(=O)O)NC(=O)[C@H](Cc1ccc(O)cc1)NC(=O)[C@@H](N)CCC(=O)O)C(=O)NCC(=O)N[C@@H](CS)C(=O)O [Peptide 1239, EYEFRG] | block epitope recognition |  | intermediate |  | more than 0.5 μg/ml |
| C[C@H](NC(=O)[C@@H](N)Cc1ccc(O)cc1)C(=O)N[C@@H](CCC(=O)O)C(=O)N[C@@H](Cc1ccccc1)C(=O)N[C@@H](CCCNC(=N)N)C(=O)NCC(=O)N[C@@H](CS)C(=O)O [Peptide 3005, YAEFRG] | block epitope recognition |  | intermediate |  |  |
| DAEFRH (not fully specified (C-terminus); listed as Homo sapiens) [Peptide 1737, reference compound] | inhibits recognition by the monoclonal antibody; also recorded: can successfully compete |  |  |  |  |
| ATYAYWN [Peptide 4038] | not inhibitory at the concentrations tested | — |  |  |  |
| GAEFRFT [Peptide 4014] | moderately inhibit binding | m |  |  |  |
| DAEFRWP [Peptide 4011] | strongly block epitope recognition | s |  |  |  |
| GSEFRDY [Peptide 4013] | moderately inhibit binding | m |  |  |  |
| CC[C@H](C)[C@H](NC(=O)[C@H](CCCNC(=N)N)NC(=O)[C@H](CC(C)C)NC(=O)[C@H](CCC(=O)O)NC(=O)[C@H](CCCCN)NC(=O)[C@@H](N)CC(=O)O)C(=O)N[C@@H](CS)C(=O)O [Peptide 3001, DKELRI] | block epitope recognition |  | strong |  |  |
| VPTSALA [Peptide 4037] | not inhibitory at the concentrations tested | — |  |  |  |
| C[C@@H](O)[C@H](NC(=O)[C@H](CCCNC(=N)N)NC(=O)[C@H](Cc1ccccc1)NC(=O)[C@H](CCC(=O)O)NC(=O)[C@H](Cc1c[nH]c2ccccc12)NC(=O)[C@@H](N)CO)C(=O)N[C@@H](CS)C(=O)O [Peptide 4002, SWEFRT] | block epitope recognition |  | strong |  | less than 0.4 μg/ml |
